Measured values reported in patent US20090221642A1, “MUSCARINIC RECEPTOR AGONISTS, COMPOSITIONS, METHODS OF TREATMENT THEREOF, AND PROCESSES FOR PREPARATION THEREOF-176” (AstraZeneca AB, priority 2008, published 2009).

Columns and labels:
[1] = biological target: T1, hM3 (human Muscarinic receptor subtype 3) (Homo sapiens, UniProt P20309); experiment: Human M3 calcium mobilization FLIPR assay; type: cell-based; settings: hM3 expressed in CHO cells, intracellular Ca2+ release, read-out: hM3 EC50
T1 construct: expressed in transfected cells; host or cells: CHO cells (Chinese hamster ovary cells, ATCC)
T1 sequence (P20309 whole entry): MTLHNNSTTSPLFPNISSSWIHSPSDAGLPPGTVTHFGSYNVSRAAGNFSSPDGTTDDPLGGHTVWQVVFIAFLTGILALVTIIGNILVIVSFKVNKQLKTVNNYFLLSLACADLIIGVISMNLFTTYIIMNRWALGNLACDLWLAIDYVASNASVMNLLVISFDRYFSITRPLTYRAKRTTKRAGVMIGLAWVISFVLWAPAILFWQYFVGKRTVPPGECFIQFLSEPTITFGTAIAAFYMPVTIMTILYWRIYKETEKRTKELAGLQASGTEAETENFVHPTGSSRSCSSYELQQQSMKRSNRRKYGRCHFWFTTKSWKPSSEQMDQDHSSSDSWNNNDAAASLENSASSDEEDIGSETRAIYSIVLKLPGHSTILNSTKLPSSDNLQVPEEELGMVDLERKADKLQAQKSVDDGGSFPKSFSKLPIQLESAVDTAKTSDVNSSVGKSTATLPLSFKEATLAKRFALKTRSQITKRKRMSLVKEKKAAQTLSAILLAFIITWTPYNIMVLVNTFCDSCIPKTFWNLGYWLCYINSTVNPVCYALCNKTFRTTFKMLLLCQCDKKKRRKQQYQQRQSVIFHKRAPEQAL
Protocol: (§1) Human M1, rat M1, human M3 and human M5 Calcium Mobilization FLIPR™ Assay
(§2) The compound activity in the present invention (EC50 or IC50) is measured using a 384 plate-based imaging assay that monitors drug induced intracellular Ca^2+ release in whole cells. Activation of hM1 (human Muscarinic receptor subtype 1, gene bank access NM_000738), rM1 (rat Muscarinic receptor subtype 1, gene bank access NM_080773), hM3 (human Muscarinic receptor subtype 3, gene bank access NM_000740NM_000740) and hM5 (human Muscarinic receptor subtype 5, gene bank access NM_0121258), receptors expressed in CHO cells (Chinese hamster ovary cells, ATCC) is quantified in a Molecular Devices FLIPR II™ instrument as an increase in fluorescent signal. Inhibition of hM3 and hM5 by compounds is determined by the decrease in fluorescent signal in response to 2 nM acetylcholine activation.
(§3) Prior to experiment, the cell culture medium is removed from the plates by inversion. […] Plates are incubated at 37° C. for 60 minutes prior to start the experiment. The incubation is terminated by washing the cells four times in assay buffer, leaving a residual 25 μl buffer per well. Cell plates are then transferred to the FLIPR, ready for compound additions.
(§4) The day of experiment, acetylcholine and compounds are diluted in assay buffer in three-fold concentration range (10 points serial dilution) for addition by FLIPR instrument. For all calcium assays, a baseline reading is taken for 10 seconds followed by the addition of 12.5 μl of compounds, resulting in a total well volume of 37.5 μl. Data is collected every second for 60 pictures and then every 6 seconds for 20 pictures prior to the addition of agonist. For hM3 and hM5, before agonist addition, a second baseline reading is taken for 10 seconds followed by the addition of 12.5 μl of agonist or buffer, producing a final volume of 50 μl. After agonist stimulation, the FLIPR continues to collect data every second for 60 pictures and then every 6 seconds for 20 pictures. The fluorescence emission is read using filter 1 (emission 510-570 nm) by the FLIPR on board CCD camera.
(§5) Calcium mobilization output data are calculated as the maximal relative fluorescence unit (RFU) minus the minimal value for both compound and agonist reading frame (except for hM1 and rM1 using only the maximal RFU). Data are analyzed using sigmoidal fits of a non-linear curve-fitting program (XLfit version 4.2.2 Excel add-in version 4.2.2 build 18 math 1Q version 2.1.2 build 18). All pEC50 and plC50 values are reported as arithmetic means ±standard error of mean of ‘n’ independent experiments.

[2] = biological target: T2, hM5 (human Muscarinic receptor subtype 5) (Homo sapiens, UniProt P08912); experiment: Human M5 calcium mobilization FLIPR assay; type: cell-based; settings: hM5 expressed in CHO cells, intracellular Ca2+ release, read-out: hM5 EC50
T2 construct: expressed in transfected cells; host or cells: CHO cells (Chinese hamster ovary cells, ATCC)
T2 sequence (P08912 1-532): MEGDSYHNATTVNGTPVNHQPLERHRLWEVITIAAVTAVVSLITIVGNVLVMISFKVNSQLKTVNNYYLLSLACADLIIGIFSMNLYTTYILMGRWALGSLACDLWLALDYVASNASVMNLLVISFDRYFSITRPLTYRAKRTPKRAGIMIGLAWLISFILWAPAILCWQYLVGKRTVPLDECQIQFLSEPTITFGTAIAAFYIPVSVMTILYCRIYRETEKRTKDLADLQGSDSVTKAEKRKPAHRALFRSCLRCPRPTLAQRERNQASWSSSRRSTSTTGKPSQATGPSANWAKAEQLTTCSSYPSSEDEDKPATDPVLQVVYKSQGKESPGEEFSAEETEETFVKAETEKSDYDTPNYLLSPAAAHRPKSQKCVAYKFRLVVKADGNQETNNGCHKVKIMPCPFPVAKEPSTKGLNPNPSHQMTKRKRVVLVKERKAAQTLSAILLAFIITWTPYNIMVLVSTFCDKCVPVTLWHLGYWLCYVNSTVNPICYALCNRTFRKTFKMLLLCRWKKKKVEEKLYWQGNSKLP
Protocol: as §1, §2, §3, §4, §5

Row | SMILES | EC50 [1] [µM] | EC50 [2] [µM]
1 | CC1(N2CCC(n3c(=O)[nH]c4ccccc43)CC2)CCN(C(=O)OCCF)C1 (racemic) [Example 4, 2-fluoroethyl 3-methyl-3-(4-(2-oxo-2,3-dihydro-1H-benzo[d]imidazol-1-yl)piperidin-1-yl)pyrrolidine-1-carboxylate] | > 40 | > 9.6
2 | CCOC(=O)N1CCC(C)(N2CCC(n3c(=O)[nH]c4cc(F)ccc43)CC2)C1 (single isomer, unassigned) [Example 7, ethyl 3-(4-(5-fluoro-2-oxo-2,3-dihydro-1H-benzo[d]imidazol-1-yl)piperidin-1-yl)-3-methylpyrrolidine-1-carboxylate] | > 40 | 3.1
3 | Cc1ccc2c(c1)[nH]c(=O)n2C1CCN(C2(C)CCN(C(=O)OC(C)C)C2)CC1 (single isomer, unassigned) [Example 15, isopropyl 3-methyl-3-(4-(5-methyl-2-oxo-2,3-dihydro-1H-benzo[d]imidazol-1-yl)piperidin-1-yl)pyrrolidine-1-carboxylate] | > 40 | –
4 | CC#CCOC(=O)N1CCC(C)(N2CCC(n3c(=O)[nH]c4ccc(C)cc43)CC2)C1 (single isomer, unassigned) [Example 20, but-2-ynyl 3-methyl-3-(4-(6-methyl-2-oxo-2,3-dihydro-1H-benzo[d]imidazol-1-yl)piperidin-1-yl)pyrrolidine-1-carboxylate] | 0.535 | 0.72
5 | CC1(N2CCC(n3c(=O)[nH]c4cc(F)ccc43)CC2)CCN(C(=O)OCCF)C1 (single isomer, unassigned) [Example 24, 2-fluoroethyl 3-(4-(5-fluoro-2-oxo-2,3-dihydro-1H-benzo[d]imidazol-1-yl)piperidin-1-yl)-3-methylpyrrolidine-1-carboxylate] | > 26.5 | 1.57
6 | Cc1ccc2[nH]c(=O)n(C3CCN(C4(C)CCN(C(=O)OCCF)C4)CC3)c2c1 (single isomer, unassigned) [Example 28, 2-fluoroethyl 3-methyl-3-(4-(6-methyl-2-oxo-2,3-dihydro-1H-benzo[d]imidazol-1-yl)piperidin-1-yl)pyrrolidine-1-carboxylate] | > 24.3 | 2.65
7 | C#CCOC(=O)N1CCC(C)(N2CCC(n3c(=O)[nH]c4ccc(C)cc43)CC2)C1 (single isomer, unassigned) [Example 41, prop-2-ynyl 3-methyl-3-(4-(6-methyl-2-oxo-2,3-dihydro-1H-benzo[d]imidazol-1-yl)piperidin-1-yl)pyrrolidine-1-carboxylate] | > 40 | > 40
8 | C#CCOC(=O)N1CCC(C)(N2CCC(n3c(=O)[nH]c4ccc(C)cc43)CC2)C1 (single isomer, unassigned) [Example 43, prop-2-ynyl 3-methyl-3-(4-(6-methyl-2-oxo-2,3-dihydro-1H-benzo[d]imidazol-1-yl)piperidin-1-yl)pyrrolidine-1-carboxylate] | 0.553 | 0.205
9 | COC(=O)N1CCC(C)(N2CCC(n3c(=O)[nH]c4ccc(C)cc43)CC2)C1 (single isomer, unassigned) [Example 45, methyl 3-methyl-3-(4-(6-methyl-2-oxo-2,3-dihydro-1H-benzo[d]imidazol-1-yl)piperidin-1-yl)pyrrolidine-1-carboxylate] | > 40 | 1.07
10 | COC(=O)N1CCC(C)(N2CCC(n3c(=O)[nH]c4cc(C)ccc43)CC2)C1 (single isomer, unassigned) [Example 48, methyl 3-methyl-3-(4-(5-methyl-2-oxo-2,3-dihydro-1H-benzo[d]imidazol-1-yl)piperidin-1-yl)pyrrolidine-1-carboxylate] | > 40 | > 40
11 | CCOC(=O)N1CCC(C)(N2CCC(n3c(=O)[nH]c4ccc(F)cc43)CC2)C1 (single isomer, unassigned) [Example 49, ethyl 3-(4-(6-fluoro-2-oxo-2,3-dihydro-1H-benzo[d]imidazol-1-yl)piperidin-1-yl)-3-methylpyrrolidine-1-carboxylate] | > 40 | > 6.21
12 | CCOC(=O)N1CCC(C)(N2CCC(n3c(=O)[nH]c4ccc(F)cc43)CC2)C1 (single isomer, unassigned) [Example 50, ethyl 3-(4-(6-fluoro-2-oxo-2,3-dihydro-1H-benzo[d]imidazol-1-yl)piperidin-1-yl)-3-methylpyrrolidine-1-carboxylate] | > 40 | 3.56
13 | COC(=O)N1CCC(C)(N2CCC(n3c(=O)[nH]c4ccc(F)cc43)CC2)C1 (single isomer, unassigned) [Example 52, methyl 3-(4-(6-fluoro-2-oxo-2,3-dihydro-1H-benzo[d]imidazol-1-yl)piperidin-1-yl)-3-methylpyrrolidine-1-carboxylate] | > 40 | > 9.63
14 | CC1(N2CCC(n3c(=O)[nH]c4ccc(F)cc43)CC2)CCN(C(=O)OCCF)C1 (single isomer, unassigned) [Example 53, 2-fluoroethyl 3-(4-(6-fluoro-2-oxo-2,3-dihydro-1H-benzo[d]imidazol-1-yl)piperidin-1-yl)-3-methylpyrrolidine-1-carboxylate] | > 40 | > 6.16
15 | CCOC(=O)N1CCC(C)(N2CCC(n3c(=O)[nH]c4cc(F)c(C)cc43)CC2)C1 (single isomer, unassigned) [Example 55, ethyl 3-(4-(5-fluoro-6-methyl-2-oxo-2,3-dihydro-1H-benzo[d]imidazol-1-yl)piperidin-1-yl)-3-methylpyrrolidine-1-carboxylate] | > 40 | 1.82
16 | CCOC(=O)N1CCC(C)(N2CCC(n3c(=O)[nH]c4cc(F)c(C)cc43)CC2)C1 (single isomer, unassigned) [Example 56, ethyl 3-(4-(5-fluoro-6-methyl-2-oxo-2,3-dihydro-1H-benzo[d]imidazol-1-yl)piperidin-1-yl)-3-methylpyrrolidine-1-carboxylate] | > 3.54 | 1.28
17 | CCOC(=O)N1CCC(C)(N2CCC(n3c(=O)[nH]c4cc(F)c(F)cc43)CC2)C1 (single isomer, unassigned) [Example 57, ethyl 3-(4-(5,6-difluoro-2-oxo-2,3-dihydro-1H-benzo[d]imidazol-1-yl)piperidin-1-yl)-3-methylpyrrolidine-1-carboxylate] | 3.55 | 0.356
18 | CCOC(=O)N1CCC(C)(N2CCC(n3c(=O)[nH]c4cc(F)c(F)cc43)CC2)C1 (single isomer, unassigned) [Example 58, ethyl 3-(4-(5,6-difluoro-2-oxo-2,3-dihydro-1H-benzo[d]imidazol-1-yl)piperidin-1-yl)-3-methylpyrrolidine-1-carboxylate] | > 40 | 2.21
19 | COC(=O)N1CCC(C)(N2CCC(n3c(=O)[nH]c4cc(F)c(F)cc43)CC2)C1 (single isomer, unassigned) [Example 60, methyl 3-(4-(5,6-difluoro-2-oxo-2,3-dihydro-1H-benzo[d]imidazol-1-yl)piperidin-1-yl)-3-methylpyrrolidine-1-carboxylate] | > 40 | > 7.27
20 | C#CCOC(=O)N1CCC(C)(N2CCC(n3c(=O)[nH]c4cc(F)ccc43)CC2)C1 (centres unmarked) [Example 11, prop-2-ynyl 3-(4-(5-fluoro-2-oxo-2,3-dihydro-1H-benzo[d]imidazol-1-yl)piperidin-1-yl)-3-methylpyrrolidine-1-carboxylate] | 1.13 | –
